Measurements as given in PubChem BioAssay (NCI).
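The compound was tested at five concentrations on cells cultured in 96-well plates, with a 48-hour exposure period. GI50: concentration for 50% inhibition of growth. Definition used: TGI = concentration required for complete inhibition of growth.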

Assays:
Test in all cases: inhibition of tumour cell growth, NCI panel, 48 h
HT29 colon = system: HT29 colon
CAKI-1 renal = system: CAKI-1 renal
HCT-15 colon = system: HCT-15 colon
HOP-92 NSCLC = system: HOP-92 NSCLC
SN12C renal = system: SN12C renal
DU-145 prostate = system: DU-145 prostate
MALME-3M melanoma = system: MALME-3M melanoma
BT-549 breast = system: BT-549 breast
EKVX NSCLC = system: EKVX NSCLC
UACC-62 melanoma = system: UACC-62 melanoma
MDA-MB-231 breast = system: MDA-MB-231 breast
SK-MEL-5 melanoma = system: SK-MEL-5 melanoma
SF-295 CNS = system: SF-295 CNS
HS 578T breast = system: HS 578T breast
U251 CNS = system: U251 CNS
HCT-116 colon = system: HCT-116 colon
T-47D breast = system: T-47D breast
NCI-H23 lung = system: NCI-H23 lung
SK-MEL-28 melanoma = system: SK-MEL-28 melanoma
A498 renal = system: A498 renal
TK-10 renal = system: TK-10 renal
CCRF-CEM leukemia = system: CCRF-CEM leukemia
NCI-H522 lung = system: NCI-H522 lung
MDA-MB-435 = system: MDA-MB-435
SNB-19 CNS = system: SNB-19 CNS
NCI-H460 lung = system: NCI-H460 lung
LOX IMVI melanoma = system: LOX IMVI melanoma
SNB-75 CNS = system: SNB-75 CNS
SF-539 CNS = system: SF-539 CNS
HOP-62 NSCLC = system: HOP-62 NSCLC
UO-31 renal = system: UO-31 renal
SK-OV-3 ovarian = system: SK-OV-3 ovarian
MCF7 breast = system: MCF7 breast
RPMI-8226 leukemia = system: RPMI-8226 leukemia
786-0 renal = system: 786-0 renal
ACHN renal = system: ACHN renal
MOLT-4 leukemia = system: MOLT-4 leukemia
HCC-2998 colon = system: HCC-2998 colon
K-562 leukemia = system: K-562 leukemia
COLO 205 colon = system: COLO 205 colon
NCI/ADR-RES ovarian = system: NCI/ADR-RES ovarian
UACC-257 melanoma = system: UACC-257 melanoma
SF-268 CNS = system: SF-268 CNS
RXF 393 renal = system: RXF 393 renal
HL-60(TB) leukemia = system: HL-60(TB) leukemia
A549 NSCLC = system: A549 NSCLC
SK-MEL-2 melanoma = system: SK-MEL-2 melanoma
OVCAR-4 ovarian = system: OVCAR-4 ovarian
KM12 colon = system: KM12 colon
SW-620 colon = system: SW-620 colon
OVCAR-5 ovarian = system: OVCAR-5 ovarian
IGROV1 ovarian = system: IGROV1 ovarian
PC-3 prostate = system: PC-3 prostate
SR leukemia = system: SR leukemia
OVCAR-8 ovarian = system: OVCAR-8 ovarian
NCI-H226 lung = system: NCI-H226 lung
M14 melanoma = system: M14 melanoma

Cn1ccnc1C(=O)/C=C/c1ccc(CNC(=O)c2ccc(S(F)(F)(F)(F)F)cc2)cc1
GI50 (HT29 colon): 3.9 µM | TGI (HT29 colon): 8.68 µM | GI50 (CAKI-1 renal): 3.26 µM | TGI (CAKI-1 renal): 6.9 µM | GI50 (HCT-15 colon): 1.36 µM | TGI (HCT-15 colon): 6.49 µM | GI50 (HOP-92 NSCLC): 4.38 µM | TGI (HOP-92 NSCLC): 12.1 µM | GI50 (SN12C renal): 5.74 µM | TGI (SN12C renal): 18.6 µM | GI50 (DU-145 prostate): 3.26 µM | TGI (DU-145 prostate): 6.6 µM | GI50 (MALME-3M melanoma): 4.85 µM | TGI (MALME-3M melanoma): 12 µM | GI50 (BT-549 breast): 3.49 µM | TGI (BT-549 breast): 7.63 µM | GI50 (EKVX NSCLC): 4.38 µM | TGI (EKVX NSCLC): 10.3 µM | GI50 (UACC-62 melanoma): 3.98 µM | TGI (UACC-62 melanoma): 9.1 µM | GI50 (MDA-MB-231 breast): 5.57 µM | TGI (MDA-MB-231 breast): 18.9 µM | GI50 (SK-MEL-5 melanoma): 4.57 µM | TGI (SK-MEL-5 melanoma): 8.52 µM | GI50 (SF-295 CNS): 3.6 µM | TGI (SF-295 CNS): 7.15 µM | GI50 (HS 578T breast): 5.45 µM | TGI (HS 578T breast): 21.4 µM | GI50 (U251 CNS): 1.45 µM | TGI (U251 CNS): 5.33 µM | GI50 (HCT-116 colon): 3.17 µM | TGI (HCT-116 colon): 7.36 µM | GI50 (T-47D breast): 4.32 µM | TGI (T-47D breast): 18.6 µM | GI50 (NCI-H23 lung): 3.02 µM | TGI (NCI-H23 lung): 7.69 µM | GI50 (SK-MEL-28 melanoma): 5.2 µM | TGI (SK-MEL-28 melanoma): 11.4 µM | GI50 (A498 renal): 3.41 µM | TGI (A498 renal): 6.84 µM | GI50 (TK-10 renal): 4.38 µM | TGI (TK-10 renal): 9.15 µM | GI50 (CCRF-CEM leukemia): 3.25 µM | TGI (CCRF-CEM leukemia): > 25 µM | GI50 (NCI-H522 lung): 4.11 µM | TGI (NCI-H522 lung): 8.23 µM | GI50 (MDA-MB-435): 5.76 µM | TGI (MDA-MB-435): 16.1 µM | GI50 (SNB-19 CNS): 3.21 µM | TGI (SNB-19 CNS): 7.07 µM | GI50 (NCI-H460 lung): 3.34 µM | TGI (NCI-H460 lung): 9.53 µM | GI50 (LOX IMVI melanoma): 1.12 µM | TGI (LOX IMVI melanoma): 4.2 µM | GI50 (SNB-75 CNS): 2.12 µM | TGI (SNB-75 CNS): 5.41 µM | GI50 (SF-539 CNS): 3.37 µM | TGI (SF-539 CNS): 7.04 µM | GI50 (HOP-62 NSCLC): 4.31 µM | TGI (HOP-62 NSCLC): 9.55 µM | GI50 (UO-31 renal): 3.36 µM | TGI (UO-31 renal): 6.59 µM | GI50 (SK-OV-3 ovarian): 7.7 µM | TGI (SK-OV-3 ovarian): > 25 µM | GI50 (MCF7 breast): 0.868 µM | TGI (MCF7 breast): 4.79 µM | GI50 (RPMI-8226 leukemia): 1.3 µM | TGI (RPMI-8226 leukemia): 8.28 µM | GI50 (786-0 renal): 4.09 µM | TGI (786-0 renal): 8.27 µM | GI50 (ACHN renal): 4.23 µM | TGI (ACHN renal): 7.74 µM | GI50 (MOLT-4 leukemia): 5.53 µM | TGI (MOLT-4 leukemia): 22.5 µM | GI50 (HCC-2998 colon): 3.7 µM | TGI (HCC-2998 colon): 7.17 µM | GI50 (K-562 leukemia): 1.05 µM | TGI (K-562 leukemia): > 25 µM | GI50 (COLO 205 colon): 4.22 µM | TGI (COLO 205 colon): 9.07 µM | GI50 (NCI/ADR-RES ovarian): 5.71 µM | TGI (NCI/ADR-RES ovarian): > 25 µM | GI50 (UACC-257 melanoma): 5.73 µM | TGI (UACC-257 melanoma): 15.2 µM | GI50 (SF-268 CNS): 3.44 µM | TGI (SF-268 CNS): 7.52 µM | GI50 (RXF 393 renal): 3.53 µM | TGI (RXF 393 renal): 7.41 µM | GI50 (HL-60(TB) leukemia): 4.87 µM | TGI (HL-60(TB) leukemia): 17.1 µM | GI50 (A549 NSCLC): 5.92 µM | TGI (A549 NSCLC): > 25 µM | GI50 (SK-MEL-2 melanoma): 4.24 µM | TGI (SK-MEL-2 melanoma): 9.22 µM | GI50 (OVCAR-4 ovarian): 3.64 µM | TGI (OVCAR-4 ovarian): 11.3 µM | GI50 (KM12 colon): 2.8 µM | TGI (KM12 colon): 6.02 µM | GI50 (SW-620 colon): 1.66 µM | TGI (SW-620 colon): 5.85 µM | GI50 (OVCAR-5 ovarian): 4.48 µM | TGI (OVCAR-5 ovarian): 11.6 µM | GI50 (IGROV1 ovarian): 3.76 µM | TGI (IGROV1 ovarian): 10.6 µM | GI50 (PC-3 prostate): 3.64 µM | TGI (PC-3 prostate): 10.3 µM | GI50 (SR leukemia): 0.854 µM | TGI (SR leukemia): > 25 µM | GI50 (OVCAR-8 ovarian): 6.54 µM | TGI (OVCAR-8 ovarian): > 25 µM | GI50 (NCI-H226 lung): 5.84 µM | TGI (NCI-H226 lung): > 25 µM | GI50 (M14 melanoma): 4.58 µM | TGI (M14 melanoma): 9.4 µM
